In one test the target is T1, human recombinant COX-2 (Homo sapiens, UniProt P35354).
T1 construct: purchased Cayman Chemical 560131
T1 sequence (P35354 18-604): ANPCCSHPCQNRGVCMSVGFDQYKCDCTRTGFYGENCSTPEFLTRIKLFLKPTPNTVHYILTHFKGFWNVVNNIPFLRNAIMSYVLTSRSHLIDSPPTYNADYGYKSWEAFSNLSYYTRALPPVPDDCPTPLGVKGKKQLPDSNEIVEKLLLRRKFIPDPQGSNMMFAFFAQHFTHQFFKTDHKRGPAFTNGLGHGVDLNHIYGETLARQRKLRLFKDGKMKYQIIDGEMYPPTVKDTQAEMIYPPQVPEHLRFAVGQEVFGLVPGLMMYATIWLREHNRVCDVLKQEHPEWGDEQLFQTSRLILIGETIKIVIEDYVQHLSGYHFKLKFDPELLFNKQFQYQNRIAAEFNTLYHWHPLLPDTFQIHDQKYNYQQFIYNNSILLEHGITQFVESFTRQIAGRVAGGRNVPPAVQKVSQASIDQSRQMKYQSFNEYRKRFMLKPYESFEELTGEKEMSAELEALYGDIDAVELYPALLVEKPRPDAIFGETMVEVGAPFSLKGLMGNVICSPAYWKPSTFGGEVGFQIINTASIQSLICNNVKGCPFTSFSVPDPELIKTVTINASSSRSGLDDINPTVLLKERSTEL
Nature of the test: biochemical. It is filed as biochemical. As to conditions: for Selectivity index SI = IC50 COX-1/IC50 COX-2: ratio of ovine COX-1 to human recombinant COX-2 IC50. Here is the method: (§1) The COX-1/2 inhibitory activities of the tested compounds were evaluated using the enzyme immunoassay (EIA) method against ovine COX-1 and human recombinant COX-2. The selectivity index was calculated as the ratio IC50 COX-1/IC50 COX-2.
(§2) The kit utilizes an enzyme immunoassay (EIA) in order to quantify the prostanoid product resulted from COX catalyzed reaction. The inhibitory potential of our molecules was tested against the ovine COX-1 and human recombinant COX-2 enzymes. The COX inhibition reaction was performed by a 10 min incubation at 37 °C in the presence of reaction buffer, heme, COX-1 or COX-2 enzymes, and the tested inhibitor. The reaction was initiated by adding arachidonic acid and incubating at 37 °C for 2 min. Enzymatic catalysis was stopped by adding HCl. Stannous chloride was subsequently added to perform the reduction of COX-derived prostaglandin H2 (PGH2) produced in the reaction of COX leading to prostaglandin F2α (PGF2α). PGF2α was then quantified using the EIA kit. Prostanoid containing solutions obtained from the COX reaction were then diluted and transferred to plates that were pre-coated with monoclonal anti-rabbit IgG antibodies produced in mouse. They were incubated overnight in the presence of PG-acetylcholinesterase (AchE) conjugate and specific PG antiserum. The reaction mixture was then removed from the wells, the plates were washed to remove all unbound reagents and Ellman’s reagent (which contains the AchE substrate) was then added for plate development. […] The intensity of the color is inversely proportional to the amount of PG found in the sample. The PG quantity was determined using a PG standard curve generated on the same plate. All determinations were performed according to the manufacturer’s instructions and similar with other literature reports. The IC50 values were calculated using a sigmoidal concentration-inhibition response curve (duplicate determinations). Every compound was assayed in the COX reaction on a range of concentrations from 0.03 μM to 300 µM in two distinct determinations. Each COX reaction sample was then EIA assayed at two dilutions and each dilution was tested in duplicate. […] Using IC50 values, the selectivity index (SI) was calculated as the ratio IC50COX-1/IC50COX-2.

The target of the next test is T2, ovine COX-1 (Ovis aries, UniProt P05979).
T2 construct: purchased Cayman Chemical 560131
T2 sequence (P05979 25-600): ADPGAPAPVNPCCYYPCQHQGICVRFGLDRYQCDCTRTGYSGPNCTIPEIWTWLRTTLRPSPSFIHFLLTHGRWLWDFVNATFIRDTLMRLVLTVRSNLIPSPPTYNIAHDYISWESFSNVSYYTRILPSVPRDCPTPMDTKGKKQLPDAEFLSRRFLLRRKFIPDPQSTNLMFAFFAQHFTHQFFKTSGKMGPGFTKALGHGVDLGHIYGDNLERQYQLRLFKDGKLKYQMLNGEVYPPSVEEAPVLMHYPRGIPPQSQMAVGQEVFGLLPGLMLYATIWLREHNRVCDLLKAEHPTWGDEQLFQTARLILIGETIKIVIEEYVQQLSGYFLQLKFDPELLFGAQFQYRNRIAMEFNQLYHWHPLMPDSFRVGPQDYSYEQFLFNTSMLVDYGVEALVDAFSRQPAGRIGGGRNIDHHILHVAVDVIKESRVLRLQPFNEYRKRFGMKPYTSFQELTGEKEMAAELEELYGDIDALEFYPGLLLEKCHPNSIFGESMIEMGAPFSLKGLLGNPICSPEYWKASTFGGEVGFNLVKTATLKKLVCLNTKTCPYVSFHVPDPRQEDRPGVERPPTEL
Nature of the test: biochemical. The note with it: EIA, sigmoidal concentration-inhibition curves, concentrations 0.03 μM to 300 µM. The class given is biochemical. The procedure:
as §1, §2

Details of test [1]: method as in earlier work. As to conditions: induced acute inflammation experimental model; cited from earlier work.
Where [2] appears, read: human recombinant COX-2, EIA, sigmoidal concentration-inhibition curves, concentrations 0.03 μM to 300 µM.

These results are taken from paper PMC6151395, “COX Inhibition Profile and Molecular Docking Studies of Some 2-(Trimethoxyphenyl)-Thiazoles” (Molecules : A Journal of Synthetic Chemistry and Natural …, 2017).

SMILES strings stand for the structures. “And” between values parts separate entries of the source, which are not always exact repeats. Equal entries are not always repeated.

For the molecule `COc1cc(-c2nc(-c3ccc([N+](=O)[O-])cc3)cs2)cc(OC)c1OC` [A3], the values for the IC50 on human recombinant COX-2 (setting [2]) and on ovine COX-1 were 25.5 µM and 236 µM, respectively. For the same molecule, the “Selectivity index SI = IC50 COX-1/IC50 COX-2” value on human recombinant COX-2 is 9.242 and 9.24. Besides, in test [1], the “in vivo anti-inflammatory effect” value is reported as “efficient”.

For `COc1cc(-c2nc(-c3sc(-c4ccccc4)nc3C)cs2)cc(OC)c1OC` [A9], the IC50 at human recombinant COX-2 (setting [2]) was determined as 70.9 µM; at ovine COX-1, 83.2 µM. Further, the “Selectivity index SI = IC50 COX-1/IC50 COX-2” value on human recombinant COX-2 is recorded as 1.17.

As to `COc1cc(-c2nc(-c3cccc4ccccc34)cs2)cc(OC)c1OC` [A6], the IC50 at human recombinant COX-2 (setting [2]) came out at 28.9 µM; on ovine COX-1, 26.9 µM. For the same molecule, the “Selectivity index SI = IC50 COX-1/IC50 COX-2” value on human recombinant COX-2 is recorded as 0.93.

As for `COc1cc(-c2nc(CCl)cs2)cc(OC)c1OC` [A10], the IC50 on human recombinant COX-2 (setting [2]) was found to be 107 µM. Besides, the “Selectivity index SI = IC50 COX-1/IC50 COX-2” value at human recombinant COX-2 is given as 5.69.

With `COc1cc(-c2nc(-c3ccccc3)c(C)s2)cc(OC)c1OC` [A1], on human recombinant COX-2 (setting [2]), the IC50 was above 300 µM and the “IC50 COX-2” value was “practically inactive”. The IC50 against ovine COX-1 stood at 140 µM.

For `COc1cc(-c2nc(C)c(C(C)=O)s2)cc(OC)c1OC` [A11], the results for the IC50 at human recombinant COX-2 (setting [2]) and against ovine COX-1 were 216 µM and 76 µM, respectively. In addition, the “Selectivity index SI = IC50 COX-1/IC50 COX-2” value at human recombinant COX-2 was 0.35.

For `COc1ccc(-c2csc(-c3cc(OC)c(OC)c(OC)c3)n2)cc1` [A4], on human recombinant COX-2 (setting [2]), the IC50 amounted to 75 µM. For the same molecule, the “Selectivity index SI = IC50 COX-1/IC50 COX-2” value on human recombinant COX-2 was determined as 0.67. For the same molecule, on ovine COX-1, the IC50 worked out at 50.4 µM and the “IC50 COX-1” value was “potent”.

Consider `COc1cc(-c2nc(-c3ccc(C#N)cc3)cs2)cc(OC)c1OC` [A5], for which the half-maximal inhibitory concentration (IC50) at human recombinant COX-2 (setting [2]) is 148 µM; against ovine COX-1, 73.3 µM. For the same molecule, the “Selectivity index SI = IC50 COX-1/IC50 COX-2” value on human recombinant COX-2 worked out at 0.49.

As for `COc1cc(-c2nc(-c3ccc(C(N)=O)c(O)c3)cs2)cc(OC)c1OC` [A7], on human recombinant COX-2 (setting [2]), the IC50 came out at 106 µM. In addition, the “Selectivity index SI = IC50 COX-1/IC50 COX-2” value at human recombinant COX-2 is listed as 0.51. Further, on ovine COX-1, the midpoint of inhibition, the IC50, lay at 54.7 µM and the “IC50 COX-1” value is recorded as “potent”.

In the case of `COc1cc(-c2nc(-c3ccc(Cl)cc3)cs2)cc(OC)c1OC` [A8], on human recombinant COX-2 (setting [2]), the IC50 was 25.6 µM. For the same molecule, the “Selectivity index SI = IC50 COX-1/IC50 COX-2” value on human recombinant COX-2 is 1.22. Besides, on ovine COX-1, the IC50 turned out to be 31.5 µM and the “IC50 COX-1” value is on record as “potent”. Besides, the “in vivo anti-inflammatory effect” value in test [1] is recorded as “efficient”.

For the molecule `CCOC(=O)Cc1csc(-c2cc(OC)c(OC)c(OC)c2)n1` [A13], the IC50 on human recombinant COX-2 (setting [2]) was 229 µM; against ovine COX-1 it was 109 µM. Further, the “Selectivity index SI = IC50 COX-1/IC50 COX-2” value at human recombinant COX-2 is reported as 0.47.

As for `CCOC(=O)c1sc(-c2cc(OC)c(OC)c(OC)c2)nc1C` [A12], the IC50 on human recombinant COX-2 (setting [2]) came out at 273 µM. The “Selectivity index SI = IC50 COX-1/IC50 COX-2” value at human recombinant COX-2 is on record as 1.5.

On to `COc1cc(-c2nc(-c3ccccc3)cs2)cc(OC)c1OC` [A2], for which the IC50 at human recombinant COX-2 (setting [2]) is 23.3 µM. For the same molecule, on human recombinant COX-2, the “Selectivity index SI = IC50 COX-1/IC50 COX-2” value worked out at 1.48. In addition, at ovine COX-1, half-maximal inhibition (IC50) required 34.5 µM and the “IC50 COX-1” value is reported as “potent”. For the same molecule, in test [1], the “in vivo anti-inflammatory effect” value was “lacked the in vivo effect”.
